Experimental data taken from patent US8731655B2, “Compounds containing acyclic N-N bonds for phototherapy” (Mallinckrodt LLC, priority 2009, dated 2014).

Legend:
[1] = test system: human myeloid leukemia U937 cell line; assay: Cell viability upon exposure of tumor cells to photosensitizer and light; assay type: cell-based; conditions: for cell viability result in words: U937 cells exposed to light in presence of photosensitizer, various concentrations and durations; for percent viability: U937 cells
Experimental: (§1) Abstract: A class of Type 1 photosensitizer containing fragile —N—N— bonds that produce reactive intermediates upon photoexcitation was prepared and tested in vitro. U937 leukemia cells were incubated with the photosensitizer at various concentrations and irradiated with 325-425 nm light at various durations.
(§2) Cell Viability Measurements: A general procedure is carried out for measuring cell viability upon exposure of tumor cells to a photosensitizer having Formula (FX23) or (FX25) and light. The photosensitizer (FX23) has an absorption maxima (λmax) of 385 nm. The cell viability analysis is carried out using human myeloid leukemia U937 cell line by the standard WST-1 assay. In this procedure, U397 Luekemia cells (0.5×10^6) are plated in standard T-25 cell culture flasks, and are exposed to four controls and a series of test conditions corresponding to a range of photosensitizer concentrations.
(§3) The photosensitizers having formula (FX23) and (FX25) are dissolved in DMSO at an initial concentration of about 8 mM and diluted with water to the final desired value such that amount of DMSO exposed to the cells is below 0.5%. The cells are incubated at 37° C. with various concentrations the photosensitizer for about 30 minutes prior to the exposure of light. […] It should be noted that in the present study, the light source is not optimized with respect to power and wavelength. The viability of cells is assessed after 24 hours following light exposure. The light source is a B-100SP High Intensity Lamp from UVP. Once exposure is complete, cells are processed to determine percent viability using Hank's Balanced Salt Solution (HBSS), Trypan blue stain, and a hemacytometer to count live and dead cells. The number of viable cells is determined and percent viability is determined

[2] = Absorption maxima of photosensitizer; assay type: physicochemical
[3] = Cell viability upon exposure of tumor cells to photosensitizer and light; assay type: cell-based, human; conditions: human, U937 myeloid leukemia cells; U937 cells, 10.0 μM photosensitizer, no light exposure; read-out: percent viability
Experimental: as §1, §2, §3

CCOC(=O)NN(C(=O)OCC)c1c2ccccc2cc2ccccc12 [FX23]
IC50 ([1]; Homo sapiens, U-937, 20 min, U937 cells exposed to light and the photosensitizer for 20 minutes, read-out: VC50/20 (concentration at which 50% decrease in cell viability is observed)): 130 ± 30 nM
cell viability result in words [1]: concentration-dependent and light exposure time-dependent decrease in cell viability
percent viability ([1]; 0.16 μM photosensitizer, light exposure 5 minutes (325-425 nm lamp), viability 24 h after exposure): 78%
percent viability ([1]; 0.16 μM photosensitizer, light exposure 10 minutes): 40%
percent viability ([1]; 0.16 μM photosensitizer, light exposure 20 minutes): 40%
percent viability ([1]; 0.32 μM photosensitizer, light exposure 5 minutes): 41%
percent viability ([1]; 0.32 μM photosensitizer, light exposure 10 minutes): 5%
percent viability ([1]; 0.32 μM photosensitizer, light exposure 20 minutes): 5%
percent viability ([1]; 0.63 μM photosensitizer, light exposure 5 minutes): 5%
percent viability ([1]; 0.63 μM photosensitizer, light exposure 10 minutes): 5%
percent viability ([1]; 0.63 μM photosensitizer, light exposure 20 minutes): 4%
absorption maxima (λmax) [2]: 385 nm

COc1cc(OC)c(/C=N/Nc2c3ccccc3nc3ccccc23)c(OC)c1 [FX25]
viability at 10 μM [3]: 60%
cell viability result in words [1]: concentration-dependent and light exposure time-dependent decrease in cell viability
percent viability ([1]; 1.25 μM photosensitizer, light exposure 10 minutes): 100%
percent viability ([1]; 1.25 μM photosensitizer, light exposure 20 minutes): 100%
percent viability ([1]; 5.0 μM photosensitizer, light exposure 10 minutes): 65%
percent viability ([1]; 5.0 μM photosensitizer, light exposure 20 minutes): 10%
percent viability ([1]; 10.0 μM photosensitizer, light exposure 10 minutes): 40%
percent viability ([1]; 10.0 μM photosensitizer, light exposure 20 minutes): 4%
